Source: patent US20150285760A1, “DIELECTROPHORETIC DEVICE FOR ANALYSIS OF CELL MECHANICS” (DREXEL UNIVERSITY, priority 2014, published 2015)
Entries after “also recorded” stand apart in the source; their conditions may differ.

Key:
Type in all cases: cell-based
[1] = system: porcine aortic endothelial cells; assay: Atomic force microscopy cell stiffness (elastic modulus), cytochalasin D treatment; details: 200 nM cytochalasin D for 15 minutes
Procedure: (§1) Cells were released from tissue culture dishes with trypsin, seeded onto micropatterned PA gels, and 30 minutes was allowed for the cells to attach to the microspots 8. The medium was replaced and the PA gel was washed to remove unattached cells. Cells were then incubated on the micropatterned PA gels for 16-24 hours prior to taking measurements. Before the measurements, the cells were transferred into serum-free CO2-independent medium (Invitrogen™). In some samples, the actin cytoskeleton was disrupted with 200 nM cytochalasin D (Sigma Aldrich) for 15 minutes at room temperature in serum-free CO2-independent medium.
Atomic force microscopy (AFM, Bioscope DAFM-2X, Veeco) was used to validate DEP device 100 cell stiffness measurements (elastic modulus). A silicon nitride cantilever with 1 μm spherical tip (196 μm long, 23 μm wide, 600 nm thick, spring constant 0.06 N/m, Novascan) was used to indent each measured cell at three distinct locations. […] At least six cells for each cell condition or cell type were measured.
(§2) Adhered porcine aortic endothelial cells were treated with cytochalasin D to determine the stiffness changes induced by cytochalasin D using the DEP device 100 of the present invention. […] The calculated cell elastic modulus in cytochalasin treated cells was about 0.3 kPa, while the cell elastic modulus in the untreated cells was calculated to be about […] (FIG. 10C).

[2] = system: porcine aortic endothelial cells; assay: DEP device cell deformation (centroid movement) of adhered cells
Procedure: as §1
A micropatterned single cell array adhered to a PA gel was mounted on an inverted Olympus IX81 fluorescent microscope. The quadrupole DEP device 100 was attached to a micromanipulator (Eppendorf), and the electrodes were centered and lowered over a single adhered cell within approximately ˜10 μm of the cell. Electrical potential was applied using a function generator (BK Precision 3011B) set to 20 Vpp, 1 MHz. The positive function generator lead was diverted into two separate lines, each going to a resistance decade box, before connecting to diagonally opposing device electrodes as in FIG. 2D. With no extra resistance applied, both electrodes received the same voltage. Increasing resistance to one electrode decreased voltage to that electrode and therefore changed the magnitude of the DEP force as well as the force direction. […]
Bright-field images were taken every 0.5 seconds throughout each measurement. […] Cell deformation was quantified by measuring the distance between cell body centroid and the lower left corner of the cropped image. […]
as §2

Endothelial cells = assay: Atomic force microscopy cell stiffness (elastic modulus) after TNF-α treatment; details: cells on 55 kPa micropatterned PA gels
From the text: Atomic force microscopy (AFM, Bioscope DAFM-2X, Veeco) was used to validate DEP device 100 cell stiffness measurements (elastic modulus). A silicon nitride cantilever with 1 μm spherical tip (196 μm long, 23 μm wide, 600 nm thick, spring constant 0.06 N/m, Novascan) was used to indent each measured cell at three distinct locations. Elastic modulus was estimated by fitting the first 200 nm of the indentation curves to a Hertz model (Solon et al., “Fibroblast adaptation and stiffness matching to soft elastic substrates,” Biophys. J., vol. […], pages 4453-4461, 2007). Three measurements per cell were averaged and defined as the cell stiffness. At least six cells for each cell condition or cell type were measured.
Endothelial cells were cultured for 24 hours on micropatterned PA gels with stiffness of 55 kPa using 25 μm fibronectin circles as the microspots 8 to allow focal adhesion formation. The micropatterned PA gel was used in a DEP device 100 of the present invention provided with a microfluidic chamber 14. The quadrupole electrodes 4 were lowered with a single cell aligned within the cage of each quadrupole electrode 4. TNF-α was introduced to the microfluidic chamber 14 to expose the cells thereto. Cell stiffness or cell elastic modulus of the endothelial cell after TNF-α treatment was measured using AFM.

Compound | calculated cell elastic modulus (AFM) [1] | cell stiffness / cell modulus (AFM), change compared with untreated cells [1] | cell centroid movement / deformation under dielectrophoretic force ([2]; 200 nM cytochalasin D for 15 minutes, compared with untreated adhered cells under the same DEP force) | cell centroid restoration to the center position ([2]; 200 nM cytochalasin D for 15 minutes, compared with untreated cells) | cell stiffness (DEP device) ([2]; cytochalasin D treatment, three different DEP forces) | endothelial cell stiffness / elastic modulus (AFM), change compared with untreated cells (Endothelial cells)
C=C1[C@@H](C)[C@H]2[C@H](Cc3ccccc3)NC(=O)[C@]23[C@H](OC(C)=O)/C=C/[C@@](C)(O)C(=O)[C@@H](C)C/C=C/[C@H]3[C@@H]1O [cytochalasin D] | about 0.3 kPa | decreased the stiffness; also recorded: lower | Untreated endothelial cells showed centroid deformations consistently smaller than treated endothelia cells; also recorded: increased | slower | decreases cell stiffness | –
TNF-α | – | – | – | – | – | Increased; also recorded: higher
